From article PMC6175574, “Kinetic mechanism of coupled binding in sodium-aspartate symporter GltPh” (eLife, 2018)
Several values for one entry are separate records, joined by “and”; a condition that tells them apart may be missing. Equal values may be shown once. Read-outs that look alike come from different tables or passages of the source.

Experiments:
[1] = biological target: P11W^IFS (Hg^2+-crosslinked P11W/K55C/A364C GltPh, inward-facing state) (Pyrococcus horikoshii, UniProt O59010, A364C/C321A/D37H/E368H/K125H/K132H/K223H/K264H/K40H/K55C/P11W); format: binding; conditions: for slope of kr values versus Na^+ concentration: linear fit constrained through the origin, kr from plateaus of ligand binding rates
Chain of P11W^IFS (Hg^2+-crosslinked P11W/K55C/A364C GltPh, inward-facing state) (O59010 whole entry P11W/D37H/K40H/K55C/K125H/K132H/K223H/K264H/C321A/A364C/E368H): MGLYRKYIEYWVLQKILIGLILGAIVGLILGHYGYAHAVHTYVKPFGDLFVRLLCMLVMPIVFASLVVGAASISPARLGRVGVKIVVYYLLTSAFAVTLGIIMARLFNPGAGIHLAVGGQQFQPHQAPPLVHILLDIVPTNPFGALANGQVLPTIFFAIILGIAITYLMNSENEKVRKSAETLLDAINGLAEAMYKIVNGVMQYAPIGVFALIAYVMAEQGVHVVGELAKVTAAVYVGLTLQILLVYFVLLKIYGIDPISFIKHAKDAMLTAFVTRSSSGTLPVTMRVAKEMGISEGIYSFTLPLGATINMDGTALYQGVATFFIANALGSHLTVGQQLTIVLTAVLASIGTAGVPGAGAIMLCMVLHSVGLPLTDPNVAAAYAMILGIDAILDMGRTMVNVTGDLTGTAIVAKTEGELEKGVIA
Experimental: (§1) For emission scans, protein samples at 1 µM were prepared in 2 mL of 20 mM Hepes/Tris pH 7.4, 300 mM choline chloride and 1 mM DDM. […] Baseline was determined using buffer only and subtracted from the data. […] For real-time fluorescence measurements of ligand binding, protein samples at 1 µM were incubated in 2 mL fluorometer cell containing 20 mM Hepes/Tris pH 7.4, 300 mM choline chloride and 1 mM DDM with various NaCl concentrations at 25°C. Data were normalized by dividing fractional fluorescence change by the maximal change observed upon addition of saturating ligand concentrations at the end of each experiment. After signal equilibration, ligands were added with fast stirring. Excitation and emission wavelengths were 295 and 350 nm, respectively. Here and elsewhere, data were analyzed using SigmaPlot 12.0 (Systat Software, Inc) and GraphPad Prism 7 (GraphPad Software). All kinetic relaxation curves were fitted to single exponentials.
The full Equation 4 requires fitting of four rate constants, kr, k-r, kon and koff ([Vogt et al., 2012]). […] The data for DL-TBOA binding were fitted to Equation 3.

P11W^IFS [2] = biological target: T1, P11W^IFS (Pyrococcus horikoshii, UniProt O59010, A364C/C321A/D37H/E368H/K125H/K132H/K223H/K264H/K40H/K55C/P11W); format: binding; conditions: for koff: fitted; for kon: reaction 1, T + Na = TNa
T1 sequence (O59010 whole entry P11W/D37H/K40H/K55C/K125H/K132H/K223H/K264H/C321A/A364C/E368H): as above
Text: The kinetic models in Figure 4, Figure 4—figure supplement 4 and Figure 5—figure supplement 1 were implemented in KinTek program (KinTek, Inc) ([Johnson, 2009]) for global parameter fitting and in Copasi ([Hoops et al., 2006]) for simulations. […] Raw relaxation curves, including 21 dissociation and 58 binding reactions were fitted globally in KinTek (Figure 4—figure supplements 2 and 3).
(§2) 68 individual relaxation curves were fitted globally, allowing only the rates of DL-TBOA dissociation to be adjusted (Figure 4—figure supplement 5).

P11W^IFS [3] = biological target: T1, P11W^IFS; test: Fluorescence-based titration using RH421; format: binding
Experimental: After addition of appropriate NaCl concentrations and 200 nM RH421 (Sigma-Aldrich), the samples were incubated at 25°C until fluorescence signal plateaued. […] Excitation and emission wavelengths were 532 and 628 nm, respectively.

wild type GltPh [4] = biological target: T2, wild type GltPh (Pyrococcus horikoshii, UniProt O59010); conditions: 100 mM NaCl; ref Ryan et al., 2009; cited from earlier work
T2 sequence (O59010 whole entry): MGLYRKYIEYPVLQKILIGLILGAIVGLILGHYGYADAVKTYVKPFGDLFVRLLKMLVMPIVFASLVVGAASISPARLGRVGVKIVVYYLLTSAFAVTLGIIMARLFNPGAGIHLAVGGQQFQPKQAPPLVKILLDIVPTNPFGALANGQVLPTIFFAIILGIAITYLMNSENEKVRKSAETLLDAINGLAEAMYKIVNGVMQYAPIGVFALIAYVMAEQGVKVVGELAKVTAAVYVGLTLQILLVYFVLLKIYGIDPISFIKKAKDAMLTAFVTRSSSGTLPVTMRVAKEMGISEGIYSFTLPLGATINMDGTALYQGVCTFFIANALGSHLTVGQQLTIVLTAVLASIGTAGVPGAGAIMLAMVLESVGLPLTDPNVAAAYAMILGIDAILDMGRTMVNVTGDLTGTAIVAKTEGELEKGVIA

wild type GltPh [5] = biological target: T2, wild type GltPh; test: L-asp transport (uptake and exchange) in proteoliposomes; format: biochemical; design: made in house; host or cells: Escherichia coli (DH10b is stated for the mutants); conditions: 35°C, 200 mM NaCl external
Experimental: GltPh protein samples were reconstituted into liposomes as previously described ([Boudker et al., 2007]; [Ryan et al., 2009]). In brief, 0.1% L-α-Phosphatidylethanolamine-N-lissamine rhodamine B sulfonyl (Avanti Polar Lipids) was added to with 3:1 (w/w) mixture of E.coli polar lipid extract and egg phosphatidylcholine and dried on rotary evaporator and under vacuum overnight. The mixture was hydrated using 20 mM Hepes/Tris, pH 7.4 and 200 mM KCl buffer at final lipid concentration of 5 mg/ml by 10 freeze/thaw cycles. The suspensions were extruded through 400 nm filter membranes (Whatman) 10 times to form unilamellar liposomes. The rhodamine fluorescence of the liposomes was measured to generate a concentration calibration curve; excitation and emission wavelengths were 560 and 583 nm, respectively. […] Final concentrations of proteoliposomes were determined by rhodamine fluorescence.
For substrate exchange experiments, the internal proteoliposome buffer was replaced with buffer containing 20 mM Hepes/Tris, pH 7.4 and 200 mM NaCl and 100 µM L-asp. […] The washed filter membranes were transferred into scintillation vials, and retained radioactivity was measured using LS6500 scintillation counter (Beckman Coulter). Background uptake was measured in the reaction buffer containing 20 mM Hepes/Tris pH 7.4, 200 mM KCl, 500 nM ^3H-L-asp and 100 nM cold L-asp.

GltPh Na3 site = tested on: GltPh Na3 site; design: method as in Heinzelmann et al., 2011; Heinzelmann et al., 2013; conditions: estimated in computational studies, ref Heinzelmann et al., 2011, 2013; cited from earlier work
[6] = biological target: T3, FM-P11W^IFS (R276S/M395R within P11W^IFS background) (Pyrococcus horikoshii, UniProt O59010, A364C/C321A/D37H/E368H/K125H/K132H/K223H/K264H/K40H/K55C/M395R/P11W/R276S); format: binding
T3 construct: made in house; host or cells: Escherichia coli DH10b
T3 sequence (O59010 1-417 P11W/D37H/K40H/K55C/K125H/K132H/K223H/K264H/R276S/C321A/A364C/E368H/M395R): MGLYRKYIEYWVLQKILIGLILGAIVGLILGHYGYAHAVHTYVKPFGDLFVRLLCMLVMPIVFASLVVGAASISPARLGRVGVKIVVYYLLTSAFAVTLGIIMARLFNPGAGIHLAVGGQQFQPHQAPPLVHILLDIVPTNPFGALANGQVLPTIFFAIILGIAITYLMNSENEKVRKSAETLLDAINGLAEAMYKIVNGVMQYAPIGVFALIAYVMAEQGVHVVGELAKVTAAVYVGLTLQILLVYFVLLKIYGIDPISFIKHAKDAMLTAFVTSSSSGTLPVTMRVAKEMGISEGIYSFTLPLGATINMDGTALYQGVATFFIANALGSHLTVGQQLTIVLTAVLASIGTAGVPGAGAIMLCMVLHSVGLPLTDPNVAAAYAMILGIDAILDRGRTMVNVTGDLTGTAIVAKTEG
Experimental: as §1, §2

Structure (SMILES): N[C@H](C(=O)O)[C@H](OCc1ccccc1)C(=O)O (racemic) [DL-TBOA, DL-threo-β-benzyloxyaspartic acid, reference compound]
- kobs of DL-TBOA binding ([1]; 8 mM DL-TBOA, 4 mM Na^+, representative experiment, single exponential fit): 0.2106 s⁻¹
- slope of kr values versus Na^+ concentration [1]: 26 ± 1.7 M⁻¹ s⁻¹
- increase in the rate of unbinding relative to L-asp in kinetic model (P11W^IFS [2]): about 20 fold
- koff (P11W^IFS [2]; reaction 3, TNa + A = TANa, P11W^IFS/DL-TBOA model): 11.5 ± 5 s⁻¹
- koff (P11W^IFS [2]; reaction 4, TNa2 + A = TANa2, P11W^IFS/DL-TBOA model): 1.72 ± 0.09 s⁻¹

Structure (SMILES): N[C@@H](CC(=O)O)C(=O)O [L-asp, aspartate]
- kobs of L-asp binding ([1]; 0.5 mM L-asp, 4 mM Na^+, representative experiment, single exponential fit): 0.0712 s⁻¹
- slope of kr values versus Na^+ concentration [1]: 36 ± 0.9 M⁻¹ s⁻¹ and 36 M⁻¹ s⁻¹
- slope of log-log plot of L-asp dissociation constants as a function of Na^+ concentration (P11W^IFS [3]): 2.5
- Km (wild type GltPh [4]): ~0.1 µM
- rate of concentrative Na^+-driven uptake of radiolabeled L-asp compared with rate of L-asp exchange (wild type GltPh [5]): significantly higher

Structure (SMILES): [Na+] [Na^+, sodium]
- intrinsic affinity of Na3 site (GltPh Na3 site): -66.9 kJ/mol
- Kd ([1]; Hill coefficient n fixed to 1, L-asp dissociation experiments, read-out: KD,Na of rapidly equilibrating Na^+ ions (fit to Equation 2)): 40 ± 20 µM
- Kd ([1]; Hill coefficient n fixed to 2, L-asp dissociation experiments, read-out: KD,Na of rapidly equilibrating Na^+ ions (fit to Equation 2)): 130 ± 20 µM
- Kd ([1]; Hill coefficient n fixed to 3, L-asp dissociation experiments, read-out: KD,Na of rapidly equilibrating Na^+ ions (fit to Equation 2)): 150 ± 13 µM
- Kd ([1]; read-out: affinity of the two 'locking' Na^+ ions): ~100 µM
- increase of the rate of binding of the first Na^+ ion relative to P11W^IFS ([6]; kinetic model adjustment): 4 fold
- kon ([6]; reaction 1, T + Na = TNa, FM-P11W^IFS/L-asp model): 144 M⁻¹ s⁻¹
- koff ([6]; reaction 1, T + Na = TNa, FM-P11W^IFS/L-asp model, optimized in global fitting (#)): 39 ± 3 s⁻¹
- Na^+ concentration at which fluxes through 'second Na^+ binds first' and 'L-asp binds first' branches are equal (P11W^IFS [2]; kinetic model, forward and reverse directions): ~ 3.6 mM and 3.6 mM
- kon (P11W^IFS [2]; P11W^IFS/DL-TBOA model, fixed (*)): 36 M⁻¹ s⁻¹
- kon (P11W^IFS [2]; P11W^IFS/L-asp model, fixed during fitting (*)): 36 M⁻¹ s⁻¹
- remaining binding rates for Na^+ ions (P11W^IFS [2]; set at an arbitrary high value): 10^7 M^−1 s^−1
- affinity of binding of the first Na^+ ion (P11W^IFS [2]; suggested by experimental data): no more than −0.5 kcal/mol
